Source: ChEMBL document CHEMBL1155237, “Selective inhibitors of the mutant B-Raf pathway: discovery of a potent and orally bioavailable aminoisoquinoline” (J Med Chem, 2009)

Key:
[1] = target: Dual specificity protein kinase CLK3 (Homo sapiens) (UniProt P49761); test: Inhibition of CLK3 assessed as enzyme activity at 1 uM relative to untreated control; set-up: scale not given: the % may be the effect or the level left
[2] = target: Tyrosine-protein kinase SYK (Homo sapiens) (UniProt P43405); test: Inhibition of SYK assessed as enzyme activity at 1 uM relative to untreated control; set-up: scale not given: the % may be the effect or the level left
[3] = target: Mitogen-activated protein kinase 14 (Homo sapiens, UniProt Q16539); test: Inhibition of p38alpha
[4] = target: Ribosomal protein S6 kinase alpha-4 (Homo sapiens) (UniProt O75676); test: Inhibition of RPS6KA4 kinase domain 2 assessed as enzyme activity at 1 uM relative to untreated control; set-up: scale not given: the % may be the effect or the level left
[5] = target: Activin receptor type-1 (Homo sapiens) (UniProt Q04771); test: Inhibition of ACVR1 assessed as enzyme activity at 1 uM relative to untreated control; set-up: scale not given: the % may be the effect or the level left
[6] = target: Serine/threonine-protein kinase DCLK2 (Homo sapiens) (UniProt Q8N568); test: Inhibition of DCAMKL2 assessed as enzyme activity at 1 uM relative to untreated control; set-up: scale not given: the % may be the effect or the level left
[7] = test system: Tyrosine-protein kinase ABL1 (Homo sapiens), P00519 [T315I]; test: Inhibition of ABL1 T315I mutant assessed as enzyme activity at 1 uM relative to untreated control; set-up: scale not given: the % may be the effect or the level left
[8] = test system: Phosphatidylinositol 4,5-bisphosphate 3-kinase catalytic subunit alpha isoform (Homo sapiens), P42336 [E545K]; test: Inhibition of PIK3CA E545K mutant assessed as enzyme activity at 1 uM relative to untreated control; set-up: scale not given: the % may be the effect or the level left
[9] = target: Mitogen-activated protein kinase 15 (Homo sapiens) (UniProt Q8TD08); test: Inhibition of ERK8 assessed as enzyme activity at 1 uM relative to untreated control; set-up: scale not given: the % may be the effect or the level left
[10] = target: Atypical kinase COQ8A, mitochondrial (Homo sapiens) (UniProt Q8NI60); test: Inhibition of ADCK3 assessed as enzyme activity at 1 uM relative to untreated control; set-up: scale not given: the % may be the effect or the level left
[11] = target: Ribosomal protein S6 kinase alpha-6 (Homo sapiens) (UniProt Q9UK32); test: Inhibition of RPS6KA6 kinase domain 2 assessed as enzyme activity at 1 uM relative to untreated control; set-up: scale not given: the % may be the effect or the level left
[12] = target: Protein kinase C theta type (Homo sapiens) (UniProt Q04759); test: Inhibition of PRKCQ assessed as enzyme activity at 1 uM relative to untreated control; set-up: scale not given: the % may be the effect or the level left
[13] = target: Casein kinase I isoform gamma-3 (Homo sapiens) (UniProt Q9Y6M4); test: Inhibition of CSNK1G3 assessed as enzyme activity at 1 uM relative to untreated control; set-up: scale not given: the % may be the effect or the level left
[14] = target: Serine/threonine-protein kinase MARK2 (Homo sapiens) (UniProt Q7KZI7); test: Inhibition of MARK2 assessed as enzyme activity at 1 uM relative to untreated control; set-up: scale not given: the % may be the effect or the level left
[15] = target: Serine/threonine-protein kinase TAO1 (Homo sapiens) (UniProt Q7L7X3); test: Inhibition of TAOK1 assessed as enzyme activity at 1 uM relative to untreated control; set-up: scale not given: the % may be the effect or the level left
[16] = Volume of distribution at steady state in Sprague-Dawley rat at 2 mg/kg, iv and 5 mg/kg, po; type: ADME, organism-based; conditions: in vivo, read-out: Vdss
[17] = target: RAC-gamma serine/threonine-protein kinase (Homo sapiens) (UniProt Q9Y243); test: Inhibition of AKT3 assessed as enzyme activity at 1 uM relative to untreated control; set-up: scale not given: the % may be the effect or the level left
[18] = target: Vascular endothelial growth factor receptor 3 (Homo sapiens) (UniProt P35916); test: Inhibition of FLT4 assessed as enzyme activity at 1 uM relative to untreated control; set-up: scale not given: the % may be the effect or the level left
[19] = Clearance in Sprague-Dawley rat at 2 mg/kg, iv and 5 mg/kg, po; type: ADME, organism-based; conditions: in vivo
[20] = target: Calcium/calmodulin-dependent protein kinase type II subunit delta (Homo sapiens) (UniProt Q13557); test: Inhibition of CAMK2D assessed as enzyme activity at 1 uM relative to untreated control; set-up: scale not given: the % may be the effect or the level left
[21] = target: Serine/threonine-protein kinase SIK1 (Homo sapiens) (UniProt P57059); test: Inhibition of SNF1LK assessed as enzyme activity at 1 uM relative to untreated control; set-up: scale not given: the % may be the effect or the level left
[22] = target: Inhibitor of nuclear factor kappa-B kinase subunit epsilon (Homo sapiens) (UniProt Q14164); test: Inhibition of IKK-epsilon assessed as enzyme activity at 1 uM relative to untreated control; set-up: scale not given: the % may be the effect or the level left
[23] = target: Muscle, skeletal receptor tyrosine-protein kinase (Homo sapiens) (UniProt O15146); test: Inhibition of MUSK assessed as enzyme activity at 1 uM relative to untreated control; set-up: scale not given: the % may be the effect or the level left
[24] = target: Tyrosine-protein kinase Lyn (Homo sapiens) (UniProt P07948); test: Inhibition of LYN assessed as enzyme activity at 1 uM relative to untreated control; set-up: scale not given: the % may be the effect or the level left
[25] = target: Bone morphogenetic protein receptor type-1B (Homo sapiens) (UniProt O00238); test: Inhibition of BMPR1B assessed as enzyme activity at 1 uM relative to untreated control; set-up: scale not given: the % may be the effect or the level left
[26] = target: Ephrin type-A receptor 3 (Homo sapiens) (UniProt P29320); test: Inhibition of EPHA3 assessed as enzyme activity at 1 uM relative to untreated control; set-up: scale not given: the % may be the effect or the level left
[27] = target: MAP/microtubule affinity-regulating kinase 3 (Homo sapiens) (UniProt P27448); test: Inhibition of MARK3 assessed as enzyme activity at 1 uM relative to untreated control; set-up: scale not given: the % may be the effect or the level left
[28] = target: Tyrosine-protein kinase Mer (Homo sapiens) (UniProt Q12866); test: Inhibition of MERTK assessed as enzyme activity at 1 uM relative to untreated control; set-up: scale not given: the % may be the effect or the level left
[29] = target: Phosphatidylinositol 5-phosphate 4-kinase type-2 beta (Homo sapiens) (UniProt P78356); test: Inhibition of PIP5K2B assessed as enzyme activity at 1 uM relative to untreated control; set-up: scale not given: the % may be the effect or the level left
[30] = target: Serine/threonine-protein kinase NLK (Homo sapiens) (UniProt Q9UBE8); test: Inhibition of NLK assessed as enzyme activity at 1 uM relative to untreated control; set-up: scale not given: the % may be the effect or the level left
[31] = target: AP2-associated protein kinase 1 (Homo sapiens) (UniProt Q2M2I8); test: Inhibition of AAK1 assessed as enzyme activity at 1 uM relative to untreated control; set-up: scale not given: the % may be the effect or the level left
[32] = target: Homeodomain-interacting protein kinase 1 (Homo sapiens) (UniProt Q86Z02); test: Inhibition of HIPK1 assessed as enzyme activity at 1 uM relative to untreated control; set-up: scale not given: the % may be the effect or the level left
[33] = target: Calcium/calmodulin-dependent protein kinase type IV (Homo sapiens) (UniProt Q16566); test: Inhibition of CAMK4 assessed as enzyme activity at 1 uM relative to untreated control; set-up: scale not given: the % may be the effect or the level left
[34] = target: BMP-2-inducible protein kinase (Homo sapiens) (UniProt Q9NSY1); test: Inhibition of BIKE assessed as enzyme activity at 1 uM relative to untreated control; set-up: scale not given: the % may be the effect or the level left
[35] = target: Inhibitor of nuclear factor kappa-B kinase subunit beta (Homo sapiens) (UniProt O14920); test: Inhibition of IKK-beta assessed as enzyme activity at 1 uM relative to untreated control; set-up: scale not given: the % may be the effect or the level left
[36] = target: Phosphatidylinositol 4,5-bisphosphate 3-kinase catalytic subunit beta isoform (Homo sapiens) (UniProt P42338); test: Inhibition of PIK3CB assessed as enzyme activity at 1 uM relative to untreated control; set-up: scale not given: the % may be the effect or the level left
[37] = target: Serine/threonine-protein kinase N2 (Homo sapiens) (UniProt Q16513); test: Inhibition of PKN2 assessed as enzyme activity at 1 uM relative to untreated control; set-up: scale not given: the % may be the effect or the level left

Chain of Bone morphogenetic protein receptor type-1B (Homo sapiens) (O00238 whole entry): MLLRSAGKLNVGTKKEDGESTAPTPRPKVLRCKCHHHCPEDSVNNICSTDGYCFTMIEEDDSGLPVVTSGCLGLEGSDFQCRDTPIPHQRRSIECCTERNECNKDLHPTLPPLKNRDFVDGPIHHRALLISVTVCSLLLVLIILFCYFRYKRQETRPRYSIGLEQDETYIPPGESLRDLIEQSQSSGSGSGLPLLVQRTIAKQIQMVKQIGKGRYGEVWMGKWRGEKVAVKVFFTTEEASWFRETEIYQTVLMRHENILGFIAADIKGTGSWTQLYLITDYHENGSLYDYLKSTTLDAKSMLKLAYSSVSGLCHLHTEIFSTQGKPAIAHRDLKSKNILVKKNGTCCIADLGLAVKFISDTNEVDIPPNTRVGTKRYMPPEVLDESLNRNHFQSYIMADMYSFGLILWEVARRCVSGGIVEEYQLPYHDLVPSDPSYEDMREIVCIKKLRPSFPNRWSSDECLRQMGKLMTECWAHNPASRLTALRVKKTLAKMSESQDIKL
Chain of Calcium/calmodulin-dependent protein kinase type II subunit delta (Homo sapiens) (Q13557 whole entry): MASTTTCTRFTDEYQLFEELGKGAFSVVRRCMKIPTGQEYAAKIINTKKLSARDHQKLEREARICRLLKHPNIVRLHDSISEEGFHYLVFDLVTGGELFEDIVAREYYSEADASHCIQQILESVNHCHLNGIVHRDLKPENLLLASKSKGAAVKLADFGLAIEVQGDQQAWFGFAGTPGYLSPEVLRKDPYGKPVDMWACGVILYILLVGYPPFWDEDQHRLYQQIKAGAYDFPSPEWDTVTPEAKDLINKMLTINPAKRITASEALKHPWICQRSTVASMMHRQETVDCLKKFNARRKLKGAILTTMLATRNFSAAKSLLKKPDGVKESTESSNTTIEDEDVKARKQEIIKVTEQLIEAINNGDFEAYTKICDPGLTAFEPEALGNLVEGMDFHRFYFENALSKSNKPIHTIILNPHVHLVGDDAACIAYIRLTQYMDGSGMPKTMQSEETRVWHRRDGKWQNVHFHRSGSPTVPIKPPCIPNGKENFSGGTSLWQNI
Chain of Dual specificity protein kinase CLK3 (Homo sapiens) (P49761 whole entry, looked up): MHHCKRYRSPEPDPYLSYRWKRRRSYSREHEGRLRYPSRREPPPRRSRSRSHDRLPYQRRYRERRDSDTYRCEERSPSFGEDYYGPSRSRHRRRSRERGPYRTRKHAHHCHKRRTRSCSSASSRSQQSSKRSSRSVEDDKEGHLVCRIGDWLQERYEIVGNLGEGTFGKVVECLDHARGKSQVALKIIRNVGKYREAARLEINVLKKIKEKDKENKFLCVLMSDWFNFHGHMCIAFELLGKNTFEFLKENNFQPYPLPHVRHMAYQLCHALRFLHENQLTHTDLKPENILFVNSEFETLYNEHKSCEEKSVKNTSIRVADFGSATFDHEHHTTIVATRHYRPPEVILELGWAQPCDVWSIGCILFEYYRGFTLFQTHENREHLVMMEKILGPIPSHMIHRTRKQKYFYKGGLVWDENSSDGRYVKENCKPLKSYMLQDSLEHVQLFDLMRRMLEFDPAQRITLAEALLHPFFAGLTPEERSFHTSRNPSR
Chain of Phosphatidylinositol 5-phosphate 4-kinase type-2 beta (Homo sapiens) (P78356 whole entry): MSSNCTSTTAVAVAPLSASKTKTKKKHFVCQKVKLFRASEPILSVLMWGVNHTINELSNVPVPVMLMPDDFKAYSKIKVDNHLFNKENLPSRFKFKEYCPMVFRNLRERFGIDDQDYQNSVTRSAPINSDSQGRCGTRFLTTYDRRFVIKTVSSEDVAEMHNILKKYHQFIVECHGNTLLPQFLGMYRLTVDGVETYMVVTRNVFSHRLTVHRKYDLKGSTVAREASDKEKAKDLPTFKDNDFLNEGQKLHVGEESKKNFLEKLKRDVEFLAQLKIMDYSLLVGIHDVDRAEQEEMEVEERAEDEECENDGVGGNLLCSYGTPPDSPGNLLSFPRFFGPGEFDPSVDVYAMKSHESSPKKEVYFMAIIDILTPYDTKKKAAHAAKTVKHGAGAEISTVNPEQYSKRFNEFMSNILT
Chain of RAC-gamma serine/threonine-protein kinase (Homo sapiens) (Q9Y243 whole entry): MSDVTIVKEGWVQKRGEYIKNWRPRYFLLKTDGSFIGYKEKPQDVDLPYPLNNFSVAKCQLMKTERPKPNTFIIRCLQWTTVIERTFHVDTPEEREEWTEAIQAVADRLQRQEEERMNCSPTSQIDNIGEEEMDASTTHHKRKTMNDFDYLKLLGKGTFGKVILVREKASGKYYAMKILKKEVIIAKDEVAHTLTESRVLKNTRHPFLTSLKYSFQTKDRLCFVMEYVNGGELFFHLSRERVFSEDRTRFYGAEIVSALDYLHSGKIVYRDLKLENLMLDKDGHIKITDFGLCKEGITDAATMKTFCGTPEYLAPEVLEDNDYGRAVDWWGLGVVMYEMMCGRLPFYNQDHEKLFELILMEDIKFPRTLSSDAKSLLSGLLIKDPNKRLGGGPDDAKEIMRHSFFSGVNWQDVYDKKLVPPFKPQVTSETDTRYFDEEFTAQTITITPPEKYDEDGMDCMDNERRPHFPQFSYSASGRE
Chain of Tyrosine-protein kinase Mer (Homo sapiens) (Q12866 whole entry): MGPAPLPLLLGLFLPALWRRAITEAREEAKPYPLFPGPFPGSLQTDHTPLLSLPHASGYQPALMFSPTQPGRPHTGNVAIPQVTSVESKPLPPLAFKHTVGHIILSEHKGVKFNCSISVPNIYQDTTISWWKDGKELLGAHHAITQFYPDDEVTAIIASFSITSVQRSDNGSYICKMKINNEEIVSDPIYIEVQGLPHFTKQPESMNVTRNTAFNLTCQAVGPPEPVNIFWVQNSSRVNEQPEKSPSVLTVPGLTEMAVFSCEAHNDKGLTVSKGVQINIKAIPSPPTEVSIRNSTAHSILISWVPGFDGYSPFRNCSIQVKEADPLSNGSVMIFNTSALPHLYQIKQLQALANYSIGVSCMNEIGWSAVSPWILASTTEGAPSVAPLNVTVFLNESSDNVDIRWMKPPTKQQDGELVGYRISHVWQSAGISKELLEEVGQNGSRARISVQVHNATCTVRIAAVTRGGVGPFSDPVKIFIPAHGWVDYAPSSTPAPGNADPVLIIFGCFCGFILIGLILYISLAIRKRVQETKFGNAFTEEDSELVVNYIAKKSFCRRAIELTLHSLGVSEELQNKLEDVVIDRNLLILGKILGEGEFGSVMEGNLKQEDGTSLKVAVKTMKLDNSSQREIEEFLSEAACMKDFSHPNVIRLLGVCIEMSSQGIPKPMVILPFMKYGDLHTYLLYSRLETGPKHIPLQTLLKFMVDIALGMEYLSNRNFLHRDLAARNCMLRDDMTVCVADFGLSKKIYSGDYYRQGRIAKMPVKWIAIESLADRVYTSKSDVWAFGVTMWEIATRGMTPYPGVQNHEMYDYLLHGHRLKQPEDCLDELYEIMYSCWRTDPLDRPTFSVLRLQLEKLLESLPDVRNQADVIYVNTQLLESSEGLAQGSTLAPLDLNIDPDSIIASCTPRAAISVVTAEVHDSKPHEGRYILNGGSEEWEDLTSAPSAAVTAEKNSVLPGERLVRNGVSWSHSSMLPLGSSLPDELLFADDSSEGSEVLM
Chain of Vascular endothelial growth factor receptor 3 (Homo sapiens) (P35916 whole entry): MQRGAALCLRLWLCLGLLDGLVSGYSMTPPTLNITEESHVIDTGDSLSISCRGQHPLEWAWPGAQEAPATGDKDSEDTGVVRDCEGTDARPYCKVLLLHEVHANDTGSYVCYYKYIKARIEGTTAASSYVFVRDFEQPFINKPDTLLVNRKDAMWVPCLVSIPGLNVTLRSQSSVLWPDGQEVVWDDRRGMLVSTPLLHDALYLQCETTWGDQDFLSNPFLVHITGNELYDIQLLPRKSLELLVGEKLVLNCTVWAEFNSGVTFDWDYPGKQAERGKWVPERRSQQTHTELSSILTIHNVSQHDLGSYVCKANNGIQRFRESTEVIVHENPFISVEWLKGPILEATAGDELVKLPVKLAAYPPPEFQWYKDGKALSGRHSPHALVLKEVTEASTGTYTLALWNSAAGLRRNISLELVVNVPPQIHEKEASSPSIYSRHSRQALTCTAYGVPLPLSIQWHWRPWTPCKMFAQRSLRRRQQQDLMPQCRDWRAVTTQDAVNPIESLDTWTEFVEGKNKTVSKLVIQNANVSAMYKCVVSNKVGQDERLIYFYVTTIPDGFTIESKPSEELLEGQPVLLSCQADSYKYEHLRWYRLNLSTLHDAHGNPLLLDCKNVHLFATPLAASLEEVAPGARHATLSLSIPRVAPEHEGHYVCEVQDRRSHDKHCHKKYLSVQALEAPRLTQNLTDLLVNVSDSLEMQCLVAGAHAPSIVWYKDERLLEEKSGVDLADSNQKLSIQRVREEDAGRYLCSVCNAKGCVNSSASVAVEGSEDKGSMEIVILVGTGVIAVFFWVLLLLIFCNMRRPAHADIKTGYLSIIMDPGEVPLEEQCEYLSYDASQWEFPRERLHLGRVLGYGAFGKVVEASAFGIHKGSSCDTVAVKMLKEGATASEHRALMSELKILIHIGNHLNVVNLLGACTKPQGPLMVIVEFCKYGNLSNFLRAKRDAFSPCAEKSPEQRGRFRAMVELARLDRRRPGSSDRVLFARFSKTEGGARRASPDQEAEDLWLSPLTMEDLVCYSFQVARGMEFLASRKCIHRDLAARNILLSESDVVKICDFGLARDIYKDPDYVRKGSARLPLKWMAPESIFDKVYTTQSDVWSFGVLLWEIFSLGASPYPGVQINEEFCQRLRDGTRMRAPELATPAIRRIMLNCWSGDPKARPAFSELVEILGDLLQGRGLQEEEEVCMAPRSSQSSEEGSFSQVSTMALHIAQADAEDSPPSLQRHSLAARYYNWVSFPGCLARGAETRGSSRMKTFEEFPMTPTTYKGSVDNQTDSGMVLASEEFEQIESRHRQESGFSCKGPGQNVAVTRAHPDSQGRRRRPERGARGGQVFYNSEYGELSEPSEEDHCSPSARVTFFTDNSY

Cc1ccc2c(Nc3ccc(Cl)cc3)nccc2c1Nc1ncccc1-c1ncnc2[nH]cnc12.Cl.Cl.Cl
Activity [1]: 94% | Activity [2]: 86% | IC50 [3]: > 1600 nM | Activity [4]: 89% | Activity [5]: 100% | Activity [6]: 100% | Activity [7]: 72% | Activity [8]: 100% | Activity [9]: 98% | Activity [10]: 100% | Activity [11]: 86% | Activity [12]: 100% | Activity [13]: 100% | Activity [14]: 100% | Activity [15]: 88% | Vd [16]: 1.9 L/kg | Activity [17]: 96% | Activity [18]: 96% | clearance [19]: 6.67 mL/min/kg | Activity [20]: 79% | Activity [21]: 75% | Activity [22]: 73% | Activity [23]: 66% | Activity [24]: 18% | Activity [25]: 96% | Activity [26]: 74% | Activity [27]: 100% | Activity [28]: 99% | Activity [29]: 57% | Activity [30]: 83% | Activity [31]: 92% | Activity [32]: 99% | Activity [33]: 96% | Activity [34]: 70% | Activity [35]: 100% | Activity [36]: 100% | Activity [37]: 86%
